Experimental findings from patent US6143732A, “Sesquiterpene derivatives” (priority 1997, dated 2000) are described below.

The assay deals with influenza A and B viruses. In words: Inhibitory activity against virus (general statement). The class given is cell-based. As to conditions: statement in words.

Structures are written as SMILES.

With `C[C@H]1CC[C@H]2C(C)(C)[C@@H](O)CC[C@]23Oc2c(c(O)cc4c2CNC4=O)C[C@]13C` [SQ-02-S5, (6a R, 7S, 9a S, 11 S, 13a S)-2,3,6,6a,7,8,9,9a,10,11,12,13-dodecahydro-5, 11-dihydroxy-6a, 7,10,10-tetramethyl-3-oxo-1H-benzo[8,8a][1]benzopyrano[2,3-e]isoindole], the “inhibitory activity against virus” value is “strong inhibitory activity against virus”.
